Publication PMC7217877, “N-AS-triggered SPMs are direct regulators of microglia in a model of Alzheimer’s disease” (Nature Communications, 2020)
Several values for one entry are separate records, joined by “and”; a condition that tells them apart may be missing. Identical values can stand only once.

What was measured:
APP/PS1 mice = assay: microglial recruitment to Aβ plaques (Iba1/ThioS colocalization, Fig 5a); format: in vivo, mouse; conditions: APP/PS1 + N-AS; cortex; individual values
Protocol: Thioflavin S (Sigma-Aldrich) staining was carried out according to previously described procedures. We used 6E10 (mouse, 1:100, Signet, SIG39300), anti-20G10 (mouse, 1:1000, provided by D. R. Howlett, GlaxoSmithKline, Harlow, Essex, UK) for Aβ42, anti-G30 (rabbit, 1:1000, provided by D. R. Howlett) for Aβ40, SMA (mouse, 1:400, Sigma-Aldrich, A2547), AT8 (mouse, 1:500, Thermo Fisher Scientific, MN1020), Caspase-3 (mouse, 1:200, Novus Biologicals, NB100-56708), ac-S565 (rabbit, 1:100), COX2 (mouse, 1:250, Thermo Fisher Scientific, 35-8200), Iba1 (rabbit, 1:500, Wako, 019-19941 and goat, Abcam, ab5076), NeuN (mouse, 1:500, Millipore, MAB177), GFAP (rabbit, 1:500, Dako, N1506 and chicken, 1:500, Abcam, ab4674), and Lamp1 (mouse, 1:200, Abcam, ab24170). The sections were analyzed with a laser-scanning confocal microscope (FV3000; Olympus) or with a BX51 microscope (Olympus). MetaMorph software (Molecular Devices) was used to quantification. Three-dimensional reconstruction of microglia was recorded and analyzed using IMARIS software (Bitplane)[11]. For the analysis of age-dependent microglial COX2^+ CX3CR1^+ cells in WT and APP/PS1 mice, COX2 (rabbit, 1:100, Abcam, ab15191) and CX3CR1 (mouse, 1:100, BioLegend, 149008) antibody were used and the images were acquired on Alexa 488 and APC Channel with performed using Operetta CLS and Analysis Software 4.5 (Perkin-Elmer). […]

COX2 S565A = biological target: T1, COX2 S565A (Homo sapiens, UniProt P35354, S565A); assay: filter binding assay of [14C] N-AS to COX2; conditions: 0.2 uM, replicates
T1 construct: His (N); made in house
T1 sequence (P35354 18-604 S565A): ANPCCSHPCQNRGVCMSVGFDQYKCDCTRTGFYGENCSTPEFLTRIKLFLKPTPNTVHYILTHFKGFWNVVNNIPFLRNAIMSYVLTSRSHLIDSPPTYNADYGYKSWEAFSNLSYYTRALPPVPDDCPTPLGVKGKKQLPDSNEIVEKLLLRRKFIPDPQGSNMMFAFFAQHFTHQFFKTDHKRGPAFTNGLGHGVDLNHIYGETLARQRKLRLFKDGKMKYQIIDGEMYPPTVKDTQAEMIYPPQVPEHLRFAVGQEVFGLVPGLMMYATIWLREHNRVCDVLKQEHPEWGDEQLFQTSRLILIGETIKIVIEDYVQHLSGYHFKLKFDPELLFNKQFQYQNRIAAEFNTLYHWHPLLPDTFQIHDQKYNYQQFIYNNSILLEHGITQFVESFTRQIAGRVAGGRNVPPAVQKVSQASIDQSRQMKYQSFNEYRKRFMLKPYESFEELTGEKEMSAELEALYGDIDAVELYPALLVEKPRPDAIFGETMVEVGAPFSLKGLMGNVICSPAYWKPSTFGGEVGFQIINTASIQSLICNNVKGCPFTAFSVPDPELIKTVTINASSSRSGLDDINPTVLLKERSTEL

Structure (SMILES): CCCCCCCCCCCCC/C=C/[C@@H](O)[C@H](CO)NC(C)=O [N-AS, N-((2S,3R,E)-1,3-Dihydroxyoctadec-4-en-2-yl)acetamide]
- Aβ containing /Iba1-positive cells per plaque (APP/PS1 mice): 7.5498 and 5.551 and 5.112 and 5.2638 and 4.818 and 7.514
- Aβ-positive Microglia/plaque (APP/PS1 mice): 27.3068 and 32.6682 and 21.5669 and 18.8144 and 22.2826 and 28.6878
- binding velocity (Vbinding) (COX2 S565A): 0.187 nM/min and 0.075 nM/min and 0.292 nM/min
